From patent US4394503A, “Cephalosporin derivatives” (priority 1981, dated 1983)
Converted amounts (≈) assume the structure as drawn. Like-named read-outs stand apart in the source and are kept apart here.

Key:
[1] = test system: H. influenzae(AMP-S); assay: In vitro activity against species of Streptococcus, Neisseria and Haemophilus (Table 3); assay type: cell-based; conditions: Haemophilus influenzae, read-out: Geometric Mean of MIC
[2] = test system: Penicillin-resistant S. aureus (Gp-Ib); assay: In vitro antibacterial activity, two-fold agar dilution, Mueller-Hinton agar (Table 1), group Gp-Ib; assay type: cell-based
[3] = test system: K. pneumoniae A 9867; assay: MIC against selected test organisms (Table 2); assay type: cell-based; conditions: Klebsiella pneumoniae
[4] = test system: Cephalothin-sensitive E. coli, Kl. pneumoniae and Pr. mirabilis (Gn-Ia); assay: In vitro antibacterial activity, two-fold agar dilution, Mueller-Hinton agar (Table 1), group Gn-Ia; assay type: cell-based; conditions: read-out: Geometric Mean of MIC
[5] = test system: E. coli A15148; assay: MIC against selected test organisms (Table 2); assay type: cell-based; conditions: Escherichia coli
[6] = test system: P. acnes A21933; assay: MIC against selected test organisms (Table 2); assay type: cell-based; conditions: Cutibacterium acnes
[7] = test system: K. pneumoniae D11; assay: MIC against selected test organisms (Table 2); assay type: cell-based; conditions: Klebsiella pneumoniae
[8] = test system: H. influenzae(AMP-R); assay: In vitro activity against species of Streptococcus, Neisseria and Haemophilus (Table 3); assay type: cell-based; conditions: Haemophilus influenzae, read-out: Geometric Mean of MIC
[9] = test system: B. fragilis A21900; assay: MIC against selected test organisms (Table 2); assay type: cell-based; conditions: Bacteroides fragilis
[10] = test system: N. meningitidus; assay: In vitro activity against species of Streptococcus, Neisseria and Haemophilus (Table 3); assay type: cell-based; conditions: read-out: Geometric Mean of MIC
[11] = test system: P. aeruginosa A15150; assay: MIC against selected test organisms (Table 2); assay type: cell-based; conditions: Pseudomonas aeruginosa
[12] = test system: S. marcescens A20019; assay: MIC against selected test organisms (Table 2); assay type: cell-based; conditions: Serratia marcescens
[13] = test system: S. pneumoniae; assay: In vitro activity against species of Streptococcus, Neisseria and Haemophilus (Table 3); assay type: cell-based; conditions: read-out: Geometric Mean of MIC
[14] = test system: B. fragilis A22693; assay: MIC against selected test organisms (Table 2); assay type: cell-based; conditions: Bacteroides fragilis, A22693, read-out: Minimum Inhibitory Concentration
[15] = test system: B. fragilis A22695; assay: MIC against selected test organisms (Table 2); assay type: cell-based; conditions: Bacteroides fragilis
[16] = test system: P. aeruginosa A9843; assay: Therapeutic efficacy in experimentally infected mice (Table 5); assay type: in vivo; conditions: Pseudomonas aeruginosa, A9843, im, 120 h; i.m., immediately after intraperitoneal challenge, 5 days observation; read-out: PD50 (median protective dose)
Description: (§1) The test compounds were administered intramuscularly immediately after the bacterial challenge.

[17] = test system: E. cloacae A9656; assay: as above; assay type: in vivo; conditions: Enterobacter cloacae, A9656, im, 120 h; i.m., immediately after intraperitoneal challenge, 5 days observation; read-out: PD50 (median protective dose)
Description: as §1

[18] = test system: S. aureus BX-1633; assay: as above; assay type: in vivo; conditions: Staphylococcus aureus, BX1633, im, 120 h; i.m., immediately after intraperitoneal challenge, 5 days observation; read-out: PD50 (median protective dose)
Description: as §1

[19] = test system: E. coli Juhl; assay: as above; assay type: in vivo; conditions: Escherichia coli, im, 120 h; i.m., immediately after intraperitoneal challenge, 5 days observation; read-out: PD50 (median protective dose)
Description: as §1

[20] = test system: Pr. mirabilis A9900; assay: as above; assay type: in vivo; conditions: Proteus mirabilis, A9900, im, 120 h; i.m., immediately after intraperitoneal challenge, 5 days observation; read-out: PD50 (median protective dose)
Description: as §1

[21] = test system: S. aureus Smith; assay: as above; assay type: in vivo; conditions: Staphylococcus aureus, im, 120 h; i.m., immediately after intraperitoneal challenge, 5 days observation; read-out: PD50 (median protective dose)
Description: as §1

[22] = test system: Ps. aeruginosa (Gn-III); assay: In vitro antibacterial activity, two-fold agar dilution, Mueller-Hinton agar (Table 1), group Gn-III; assay type: cell-based; conditions: Pseudomonas aeruginosa; read-out: Geometric Mean of MIC
[23] = test system: N. gonorrhoeae; assay: In vitro activity against species of Streptococcus, Neisseria and Haemophilus (Table 3); assay type: cell-based; conditions: Neisseria gonorrhoeae, read-out: Geometric Mean of MIC
[24] = test system: P. mirabilis A9554; assay: MIC against selected test organisms (Table 2); assay type: cell-based; conditions: Proteus mirabilis
[25] = test system: B. fragilis A22533; assay: MIC against selected test organisms (Table 2); assay type: cell-based; conditions: Bacteroides fragilis
[26] = test system: E. coli Juhl; assay: MIC against selected test organisms (Table 2); assay type: cell-based; conditions: Escherichia coli, read-out: Minimum Inhibitory Concentration
[27] = test system: C. perfringens A9635; assay: microbe, parasite or virus in culture; assay type: cell-based; conditions: Clostridium perfringens, A9635, read-out: Minimum Inhibitory Concentration
[28] = test system: P. morganii A9553; assay: MIC against selected test organisms (Table 2); assay type: cell-based; conditions: Morganella morganii
[29] = test system: Pr. morganii, Ent. cloacae and Ser. marcescens (Gn-II); assay: In vitro antibacterial activity, two-fold agar dilution, Mueller-Hinton agar (Table 1), group Gn-II; assay type: cell-based, Pr. morganii (1), Ent. cloacae (2) and Ser. marcescens (2); conditions: read-out: Geometric Mean of MIC
[30] = test system: P. aeruginosa A9843; assay: MIC against selected test organisms (Table 2); assay type: cell-based; conditions: Pseudomonas aeruginosa
[31] = test system: Cephalothin-resistant E. coli and Kl. pneumoniae (Gn-Ib); assay: In vitro antibacterial activity, two-fold agar dilution, Mueller-Hinton agar (Table 1), group Gn-Ib; assay type: cell-based, E. coli (3) and Kl. pneumoniae (3); conditions: Escherichia coli, read-out: Geometric Mean of MIC

Structure (SMILES): CSc1cc[n+](CC2=C(C(=O)[O-])N3C(=O)C(NC(=O)/C(=N\OC(C)(C)C(=O)O)c4csc(N)n4)C3SC2)cc1 (centres unmarked) [Example 2, 7-[(Z)-2-(2-Aminothiazol-4-yl)-2-(2-carboxyprop-2-oxyimino)-acetamido]-3-[(4-methylthiopyridinium)methyl]-3-cephem-4-carboxylate]
- MIC ([1]; AMP-S, 7 strains): 0.1 µg/mL (≈ 0.169 µM)
- MIC ([2]; Staphylococcus aureus; read-out: Geometric Mean of MIC): 6.3 µg/mL (≈ 10.6 µM)
- MIC ([3]; A9867, Gn-Ib, CET-R, read-out: Minimum Inhibitory Concentration): 3.1 µg/mL (≈ 5.23 µM)
- MIC [4]: 0.066 µg/mL (≈ 0.111 µM)
- MIC ([5]; A15148, Gn-Ib, CET-R, read-out: Minimum Inhibitory Concentration): 0.2 µg/mL (≈ 0.337 µM)
- MIC ([6]; A21933, Anaerobe, CLDM-R, read-out: Minimum Inhibitory Concentration): 1.6 µg/mL (≈ 2.7 µM)
- MIC ([7]; D11, Gn-Ia, CET-S, read-out: Minimum Inhibitory Concentration): 0.1 µg/mL (≈ 0.169 µM)
- MIC ([8]; AMP-R, 3 strains): 0.4 µg/mL (≈ 0.675 µM)
- MIC ([9]; A21900, Anaerobe, CET-S, read-out: Minimum Inhibitory Concentration): 6.3 µg/mL (≈ 10.6 µM)
- MIC ([10]; 5 strains): 0.013 µg/mL (≈ 0.0219 µM)
- MIC ([11]; A15150, Gn-III, CET-R, read-out: Minimum Inhibitory Concentration): 1.6 µg/mL (≈ 2.7 µM)
- MIC ([12]; A20019, Gn-II, CET-R, read-out: Minimum Inhibitory Concentration): 0.4 µg/mL (≈ 0.675 µM)
- MIC ([13]; 5 strains): 0.2 µg/mL (≈ 0.337 µM)
- MIC [14]: 12.5 µg/mL (≈ 21.1 µM)
- MIC ([15]; A22695, Anaerobe, AMP-R, read-out: Minimum Inhibitory Concentration): 50 µg/mL (≈ 84.4 µM)
- ED50 [16]: 12 mg/kg
- ED50 [17]: 3.5 mg/kg
- ED50 [18]: 15 mg/kg
- ED50 [19]: 0.16 mg/kg
- ED50 [20]: 0.63 mg/kg
- ED50 [21]: 5 mg/kg
- MIC [22]: 3.1 µg/mL (≈ 5.23 µM)
- MIC ([23]; 4 strains): 0.013 µg/mL (≈ 0.0219 µM)
- MIC ([24]; A9554, Gn-Ia, CET-S, read-out: Minimum Inhibitory Concentration): 0.05 µg/mL (≈ 0.0844 µM)
- MIC ([25]; A22533, Anaerobe, AMP-R, read-out: Minimum Inhibitory Concentration): > 100 µg/mL
- MIC ([26]; Gn-Ia, CET-S): 0.1 µg/mL (≈ 0.169 µM)
- MIC [27]: 12.5 µg/mL (≈ 21.1 µM)
- MIC ([28]; A9553, Gn-II, CET-R, read-out: Minimum Inhibitory Concentration): 1.6 µg/mL (≈ 2.7 µM)
- MIC [29]: 1.5 µg/mL (≈ 2.53 µM)
- MIC ([30]; A9843, Gn-III, CET-R, read-out: Minimum Inhibitory Concentration): 1.6 µg/mL (≈ 2.7 µM)
- MIC [31]: 0.89 µg/mL (≈ 1.5 µM)

Structure (SMILES): CC(C)(O/N=C(\C(=O)N[C@@H]1C(=O)N2C(C(=O)[O-])=C(C[n+]3ccccc3)CS[C@H]12)c1csc(N)n1)C(=O)O [Ceftazidime, ceftazidime, reference compound]
- MIC [1]: 0.055 µg/mL (≈ 0.101 µM)
- MIC ([2]; Staphylococcus aureus, read-out: Geometric Mean of MIC): 12.5 µg/mL (≈ 22.9 µM)
- MIC ([3]; A9867, read-out: Minimum Inhibitory Concentration): 6.3 µg/mL (≈ 11.5 µM)
- MIC [4]: 0.066 µg/mL (≈ 0.121 µM)
- MIC ([5]; A15148, read-out: Minimum Inhibitory Concentration): 0.4 µg/mL (≈ 0.732 µM)
- MIC ([6]; A21933, read-out: Minimum Inhibitory Concentration): 1.6 µg/mL (≈ 2.93 µM)
- MIC ([7]; D11, read-out: Minimum Inhibitory Concentration): 0.1 µg/mL (≈ 0.183 µM)
- MIC [8]: 0.2 µg/mL (≈ 0.366 µM)
- MIC ([9]; A21900, read-out: Minimum Inhibitory Concentration): 25 µg/mL (≈ 45.7 µM)
- MIC [10]: 0.1 µg/mL (≈ 0.183 µM)
- MIC ([11]; A15150, read-out: Minimum Inhibitory Concentration): 0.8 µg/mL (≈ 1.46 µM)
- MIC ([12]; A20019, read-out: Minimum Inhibitory Concentration): 0.1 µg/mL (≈ 0.183 µM)
- MIC [13]: 0.4 µg/mL (≈ 0.732 µM)
- MIC [14]: 12.5 µg/mL (≈ 22.9 µM)
- MIC ([15]; A22695, read-out: Minimum Inhibitory Concentration): 50 µg/mL (≈ 91.5 µM)
- ED50 [16]: 6 mg/kg
- ED50 [17]: 3.5 mg/kg
- ED50 [18]: 15 mg/kg
- ED50 [19]: 0.11 mg/kg
- ED50 [20]: 0.9 mg/kg
- ED50 [21]: 10 mg/kg
- MIC [22]: 2 µg/mL (≈ 3.66 µM)
- MIC [23]: 0.1 µg/mL (≈ 0.183 µM)
- MIC ([24]; A9554, read-out: Minimum Inhibitory Concentration): 0.05 µg/mL (≈ 0.0915 µM)
- MIC ([25]; A22533, read-out: Minimum Inhibitory Concentration): > 100 µg/mL
- MIC [26]: 0.1 µg/mL (≈ 0.183 µM)
- MIC [27]: 6.3 µg/mL (≈ 11.5 µM)
- MIC ([28]; A9553, read-out: Minimum Inhibitory Concentration): 3.1 µg/mL (≈ 5.67 µM)
- MIC [29]: 2.7 µg/mL (≈ 4.94 µM)
- MIC ([30]; A9843, read-out: Minimum Inhibitory Concentration): 1.6 µg/mL (≈ 2.93 µM)
- MIC [31]: 1.6 µg/mL (≈ 2.93 µM)
